The term LD50 denotes the dose expected to kill half of the subjects tested. A lower LD50 goes with greater toxicity.

One data set concerns rabbit platelets. In words: TXA2 release from rabbit platelets. It counts as cell-based. The conditions noted are these: Oryctolagus cuniculus, Platelet, 8 min, washed rabbit platelets, 37° C., read-out: TXA2 release suppressing action: amount necessary for 50% inhibition of TXA2 release. The procedure: TXA2 release from rabbit platelets Blood was taken from the carotid artery of normal rabbit using ethylenediaminetetraacetic acid (EDTA; 77 mM EDTA, 1/10 vol). The blood was centrifuged at 1800 rpm for 8 minutes and platelet rich plasma in the supernatant was recovered, which was then centrifuged at 3200 rpm for 8 minutes. The sediment (platelet) was washed with Tyrode-HEPES-EDTA buffer and centrifuged at 3200 rpm for 8 minutes. The sediment was suspended in Tyrode-HEPES buffer to prepare washed platelets (5×10^8 platelets/ml). 100% DMSO or a reagent (Compound A, 1.5 μl) was added to the washed platelets (270 μl) and the mixture was heated at 37° C. for 2 minutes. Then, collagen (10 μg/ml) and 1 mM Ca^2+ (or 1 mM Ca^2+ alone when investigating release from unstimulated platelets) were added and the experiment was started. After heating at 37° C. for 8 minutes, 10^-3 M indomethacin was added and the cuvette was placed in ice to stop the reaction. After centrifugation at 10,000 rpm for 10 minutes, the supernatant was taken and stored at -20° C. until used for the TXA2 determination. The TXA2 amount in the above Experimental Examples was measured as TXB2 (stable compound thereof) amount by the EIA method using TXB2 assay kit (manufactured by Amersham). | *1: amount necessary for 50% inhibition of TXA2 release (μM)

The target of data set [1] is T1, TXA2 synthetase (Oryctolagus cuniculus, UniProt G1TAZ9).
T1 construct: to prepare a microsomal fraction; from tissue; host or cells: rabbit blood platelets, microsomal fraction
T1 sequence (G1TAZ9 1-530): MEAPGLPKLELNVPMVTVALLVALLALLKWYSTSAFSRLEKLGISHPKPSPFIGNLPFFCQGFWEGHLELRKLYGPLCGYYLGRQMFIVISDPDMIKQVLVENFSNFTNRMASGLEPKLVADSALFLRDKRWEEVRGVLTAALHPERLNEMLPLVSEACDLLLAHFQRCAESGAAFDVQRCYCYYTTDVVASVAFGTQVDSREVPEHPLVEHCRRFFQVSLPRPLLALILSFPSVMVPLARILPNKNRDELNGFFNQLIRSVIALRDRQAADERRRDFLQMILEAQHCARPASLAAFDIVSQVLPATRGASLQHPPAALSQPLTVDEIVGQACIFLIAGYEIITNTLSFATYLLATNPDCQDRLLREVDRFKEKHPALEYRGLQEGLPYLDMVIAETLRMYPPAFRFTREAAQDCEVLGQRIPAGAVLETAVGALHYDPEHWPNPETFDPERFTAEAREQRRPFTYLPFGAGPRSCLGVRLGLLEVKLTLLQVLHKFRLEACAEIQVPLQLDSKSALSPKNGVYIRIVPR
In words: Inhibition of TXA2 synthetase using rabbit platelet microsome. It counts as biochemical. The settings on record: PGH2 5 nmol, 22° C., 3 minutes, measured as TXB2 by EIA, read-out: TXA2 synthetase inhibitory action: amount necessary for 50% inhibition of TXA2 synthesis. The protocol:
Inhibition of TXA2 synthetase using rabbit platelet microsome
Blood was taken from the carotid artery of normal rabbit, using EDTA (77 mM EDTA, 1/10 vol). The blood was centrifuged at 1300 rpm for 10 minutes and platelet rich plasma in the supernatant was recovered, which was centrifuged at 3400 rpm for 15 minutes. The sediment was washed with physiological saline (original volume) and centrifuged at 3400 rpm for 15 minutes. Then, 0.05M Tris-HCl buffer (1 mM EDTA, pH 7.5, 3-fold weight of the wet weight of platelets) was added to the sediment and the mixture was homogenated (2 minutes, full speed) using polytron. The homogenate was centrifuged at 8300 rpm for 15 minutes (Tomy RD-20III, No. 3N) and the supernatant was centrifuged at […] for 1 hour (Beckman TL-100, TLA100.3). The sediment was suspended in 0.05M Tris-HCl buffer (1 mM EDTA, pH 7.5, one-third weight of the wet weight of platelets) to prepare a microsomal fraction. The fraction was stored at -80° C. until used for the experiment.
0.05M Tris-HCl buffer (pH 7.5, 890 μl), 100 μl of the above-mentionedmicrosome (85 μg protein) and 100% DMSO or the reagent (Compound A, 5 μl) were added and the mixture was preincubated at 22° C. for 3 minutes. […]
The TXA2 amount in the above Experimental Examples was measured as TXB2 (stable compound thereof) amount by the EIA method using TXB2 assay kit (manufactured by Amersham). […]

For data set [2], the target named is T2, TXA2 synthetase (Homo sapiens, UniProt P24557).
T2 construct: human platelet microsome was used; from tissue; host or cells: human blood platelets, microsomal fraction
T2 sequence (P24557 1-533): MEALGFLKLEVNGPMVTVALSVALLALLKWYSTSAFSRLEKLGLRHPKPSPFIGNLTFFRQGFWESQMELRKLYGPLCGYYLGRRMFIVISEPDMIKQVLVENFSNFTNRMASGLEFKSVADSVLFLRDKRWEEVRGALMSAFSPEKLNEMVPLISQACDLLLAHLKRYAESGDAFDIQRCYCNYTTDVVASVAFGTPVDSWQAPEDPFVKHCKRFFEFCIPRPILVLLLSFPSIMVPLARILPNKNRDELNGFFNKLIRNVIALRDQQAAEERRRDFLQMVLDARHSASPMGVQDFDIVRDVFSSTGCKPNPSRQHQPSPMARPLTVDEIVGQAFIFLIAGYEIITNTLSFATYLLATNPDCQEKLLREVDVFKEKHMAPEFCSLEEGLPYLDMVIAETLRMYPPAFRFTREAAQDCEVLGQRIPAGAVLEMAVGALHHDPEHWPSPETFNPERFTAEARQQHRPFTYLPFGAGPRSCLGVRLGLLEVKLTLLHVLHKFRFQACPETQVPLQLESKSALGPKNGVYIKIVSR
Kind of data set: inhibition of TXA2 synthetase by the use of human platelet microsome. It is filed as biochemical. The conditions noted are these: read-out: IC50 (amount necessary to inhibit 50% of TXA2 synthesis) of TXA2 synthetase inhibitory action. The procedure:
The TXA2 amount in the above Experimental Examples was measured as TXB2 (stable compound thereof) amount by the EIA method using TXB2 assay kit (manufactured by Amersham). inhibition of TXA2 synthetase by the use of human platelet microsome In the same manner as in Experimental Example 2 except that human platelet microsome was used instead of rabbit platelet microsome, the experiment was performed. Compound A, Compound B and Compound C were used as reagents.

The nature of the next data set: acute toxicity in rats. The settings on record: rat, in vivo, po, orally administered.
A short description of the next data set: acute toxicity in dogs. The settings on record: dog, in vivo, po, orally administered.

Counter-ions that a name gives are not always drawn. Like-named read-outs stand apart in the source and are kept apart here.

`Cl.O=c1[nH]nc(OCCCc2ccc(Cl)cc2)c(NCc2cccnc2)c1Br` [Compound A, 4-bromo-6-[3-(4-chlorophenyl)propoxy]-5-(3-pyridylmethylamino)-3(2H)-pyridazinone hydrochloride]: the IC50 was 1000 nM in the data set with rabbit platelets (not stimulated, 1 mM Ca2+ alone); 9 nM in the data set with rabbit platelets (stimulated with collagen (10 μg/ml), 1 mM Ca2+); 18 nM at TXA2 synthetase [1]; 10 nM at TXA2 synthetase [2]. Further, the LD50 in the data set “acute toxicity in rats” and in “acute toxicity in dogs” was at least 2000 mg/kg throughout.
Consider `O=c1[nH]nc(OCC[C@H](O)c2ccc(Cl)cc2)c(NCc2cccnc2)c1Br` [Compound B, 4-bromo-6-[(3S)-(4-chlorophenyl)-3-hydroxypropoxy]-5-(3-pyridylmethylamino)-3(2H)-pyridazinone hydrochloride], for which, at TXA2 synthetase [2], the IC50 worked out at 20 nM.
Turning to `O=c1[nH]nc(OCC[C@@H](O)c2ccc(Cl)cc2)c(NCc2cccnc2)c1Br` [Compound C, 4-bromo-6-[(3R)-(4-chlorophenyl)-3-hydroxypropoxy]-5-(3-pyridylmethylamino)-3(2H)-pyridazinone hydrochloride], the IC50 on TXA2 synthetase [2] was determined as 30 nM.

Source of the values: patent US5798357A, “Agent for prophylaxis and treatment of thromboxane A2 -mediated diseases” (The Green Cross Corporation, priority 1994, dated 1998).
